Experimental data: PubChem BioAssay (NCI)
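Test compounds were applied to cells in 96-well plates for 48 hours at 5 doses. Definition used: TGI = concentration required for complete inhibition of growth.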

Tests used:
Experiment in all cases: NCI tumour cell line growth inhibition, 48 h
786-0 renal = system: 786-0 renal
A549 NSCLC = system: A549 NSCLC
ACHN renal = system: ACHN renal
CAKI-1 renal = system: CAKI-1 renal
CCRF-CEM leukemia = system: CCRF-CEM leukemia
COLO 205 colon = system: COLO 205 colon
DLD-1 colon = system: DLD-1 colon
DMS 114 small cell lung = system: DMS 114 small cell lung
DMS 273 small cell lung = system: DMS 273 small cell lung
HCC-2998 colon = system: HCC-2998 colon
HCT-15 colon = system: HCT-15 colon
HL-60(TB) leukemia = system: HL-60(TB) leukemia
HOP-18 NSCLC = system: HOP-18 NSCLC
HOP-62 NSCLC = system: HOP-62 NSCLC
HOP-92 NSCLC = system: HOP-92 NSCLC
HT29 colon = system: HT29 colon
K-562 leukemia = system: K-562 leukemia
KM12 colon = system: KM12 colon
KM20L2 colon = system: KM20L2 colon
LOX IMVI melanoma = system: LOX IMVI melanoma
LXFL 529 NSCLC = system: LXFL 529 NSCLC
M14 melanoma = system: M14 melanoma
MALME-3M melanoma = system: MALME-3M melanoma
MOLT-4 leukemia = system: MOLT-4 leukemia
NCI-H226 lung = system: NCI-H226 lung
NCI-H23 lung = system: NCI-H23 lung
NCI-H460 lung = system: NCI-H460 lung
NCI-H522 lung = system: NCI-H522 lung
OVCAR-3 ovarian = system: OVCAR-3 ovarian
OVCAR-4 ovarian = system: OVCAR-4 ovarian
OVCAR-5 ovarian = system: OVCAR-5 ovarian
OVCAR-8 ovarian = system: OVCAR-8 ovarian
RPMI-8226 leukemia = system: RPMI-8226 leukemia
RXF 393 renal = system: RXF 393 renal
RXF-631 renal = system: RXF-631 renal
SF-268 CNS = system: SF-268 CNS
SF-295 CNS = system: SF-295 CNS
SK-MEL-2 melanoma = system: SK-MEL-2 melanoma
SK-MEL-28 melanoma = system: SK-MEL-28 melanoma
SK-MEL-5 melanoma = system: SK-MEL-5 melanoma
SN12C renal = system: SN12C renal
SNB-19 CNS = system: SNB-19 CNS
SNB-75 CNS = system: SNB-75 CNS
SNB-78 CNS = system: SNB-78 CNS
SW-620 colon = system: SW-620 colon
TK-10 renal = system: TK-10 renal
UACC-257 melanoma = system: UACC-257 melanoma
UO-31 renal = system: UO-31 renal
XF 498 CNS = system: XF 498 CNS
A498 renal = system: A498 renal
EKVX NSCLC = system: EKVX NSCLC
HCT-116 colon = system: HCT-116 colon
IGROV1 ovarian = system: IGROV1 ovarian
M19-MEL melanoma = system: M19-MEL melanoma
MCF7 breast = system: MCF7 breast
NCI/ADR-RES ovarian = system: NCI/ADR-RES ovarian
P388 leukemia = system: P388 leukemia
P388/ADR leukemia = system: P388/ADR leukemia
SF-539 CNS = system: SF-539 CNS
SK-OV-3 ovarian = system: SK-OV-3 ovarian
SN12K1 renal = system: SN12K1 renal
U251 CNS = system: U251 CNS
UACC-62 melanoma = system: UACC-62 melanoma

Cc1nnc(N/N=C(/C(=O)C(C#N)c2ccc(Cl)cc2)C(C#N)c2ccc(Cl)cc2)n1N (stereo unspecified)
TGI (786-0 renal): 31.5 µM
TGI (A549 NSCLC): 43.9 µM
TGI (ACHN renal): 30.8 µM
TGI (CAKI-1 renal): 43.1 µM
TGI (CCRF-CEM leukemia): > 100 µM
TGI (COLO 205 colon): 32.5 µM
TGI (DLD-1 colon): 42.4 µM
TGI (DMS 114 small cell lung): 31.4 µM
TGI (DMS 273 small cell lung): 34 µM
TGI (HCC-2998 colon): 34.2 µM
TGI (HCT-15 colon): 49.4 µM
TGI (HL-60(TB) leukemia): 55.4 µM
TGI (HOP-18 NSCLC): 30 µM
TGI (HOP-62 NSCLC): 30.3 µM
TGI (HOP-92 NSCLC): > 100 µM
TGI (HT29 colon): 61.9 µM
TGI (K-562 leukemia): 45.4 µM
TGI (KM12 colon): 39.8 µM
TGI (KM20L2 colon): 41.2 µM
TGI (LOX IMVI melanoma): 35.4 µM
TGI (LXFL 529 NSCLC): 26.6 µM
TGI (M14 melanoma): 38.7 µM
TGI (MALME-3M melanoma): 33.6 µM
TGI (MOLT-4 leukemia): > 100 µM
TGI (NCI-H226 lung): 33.5 µM
TGI (NCI-H23 lung): 35.3 µM
TGI (NCI-H460 lung): 39.3 µM
TGI (NCI-H522 lung): 32.3 µM
TGI (OVCAR-3 ovarian): 48.8 µM
TGI (OVCAR-4 ovarian): 32.9 µM
TGI (OVCAR-5 ovarian): 33.6 µM
TGI (OVCAR-8 ovarian): 41 µM
TGI (RPMI-8226 leukemia): 45.6 µM
TGI (RXF 393 renal): 31.6 µM
TGI (RXF-631 renal): 35.4 µM
TGI (SF-268 CNS): 57.2 µM
TGI (SF-295 CNS): 30.9 µM
TGI (SK-MEL-2 melanoma): 34.5 µM
TGI (SK-MEL-28 melanoma): 33.8 µM
TGI (SK-MEL-5 melanoma): 30.9 µM
TGI (SN12C renal): 34.9 µM
TGI (SNB-19 CNS): 27.9 µM
TGI (SNB-75 CNS): 30.1 µM
TGI (SNB-78 CNS): 51.3 µM
TGI (SW-620 colon): 37.3 µM
TGI (TK-10 renal): 34.7 µM
TGI (UACC-257 melanoma): 33.1 µM
TGI (UO-31 renal): 34.1 µM
TGI (XF 498 CNS): 46.6 µM

CC(C)=CCC/C(C)=C/CCC1(C)C=Cc2c(c3ccccc3oc2=O)O1 (stereo unspecified)
TGI (A498 renal): 27.1 µM
TGI (A549 NSCLC): 33.2 µM
TGI (CAKI-1 renal): 33 µM
TGI (CCRF-CEM leukemia): > 74 µM
TGI (COLO 205 colon): 35.5 µM
TGI (DLD-1 colon): 28.5 µM
TGI (DMS 114 small cell lung): 29.8 µM
TGI (DMS 273 small cell lung): 32 µM
TGI (EKVX NSCLC): 33.9 µM
TGI (HCC-2998 colon): 31.8 µM
TGI (HCT-116 colon): 28 µM
TGI (HCT-15 colon): 30.2 µM
TGI (HL-60(TB) leukemia): > 75.8 µM
TGI (HOP-18 NSCLC): 32.6 µM
TGI (HOP-62 NSCLC): 17.8 µM
TGI (HOP-92 NSCLC): 25 µM
TGI (HT29 colon): 33.7 µM
TGI (IGROV1 ovarian): 30.8 µM
TGI (K-562 leukemia): > 89 µM
TGI (KM12 colon): 33.2 µM
TGI (KM20L2 colon): 34 µM
TGI (LOX IMVI melanoma): 32.4 µM
TGI (M19-MEL melanoma): 31.4 µM
TGI (MALME-3M melanoma): 43.7 µM
TGI (MCF7 breast): 30.5 µM
TGI (MOLT-4 leukemia): > 72.7 µM
TGI (NCI-H226 lung): 30 µM
TGI (NCI-H23 lung): 28.9 µM
TGI (NCI-H460 lung): 30.1 µM
TGI (NCI-H522 lung): 29.3 µM
TGI (NCI/ADR-RES ovarian): 31.1 µM
TGI (OVCAR-3 ovarian): 32.7 µM
TGI (OVCAR-4 ovarian): 28.4 µM
TGI (OVCAR-5 ovarian): 32.6 µM
TGI (OVCAR-8 ovarian): 30.3 µM
TGI (P388 leukemia): 52.6 µM
TGI (P388/ADR leukemia): > 62.6 µM
TGI (RPMI-8226 leukemia): 63.8 µM
TGI (RXF 393 renal): 27.8 µM
TGI (SF-268 CNS): 40.8 µM
TGI (SF-295 CNS): 33.9 µM
TGI (SF-539 CNS): 30.5 µM
TGI (SK-MEL-2 melanoma): 31.4 µM
TGI (SK-MEL-28 melanoma): 29.9 µM
TGI (SK-MEL-5 melanoma): 28.1 µM
TGI (SK-OV-3 ovarian): 50.8 µM
TGI (SN12C renal): 32 µM
TGI (SN12K1 renal): 30.7 µM
TGI (SNB-19 CNS): 37.7 µM
TGI (SNB-75 CNS): 19.8 µM
TGI (SNB-78 CNS): > 92.8 µM
TGI (SW-620 colon): 33.7 µM
TGI (U251 CNS): 28.8 µM
TGI (UACC-257 melanoma): 31.2 µM
TGI (UACC-62 melanoma): 24 µM
TGI (UO-31 renal): 28.8 µM
TGI (XF 498 CNS): 29.4 µM
